Data published in patent publication US20030166201A1, “Selection systems for genetically modified cells” (priority 2001, published 2003).
Like-named read-outs stand apart in the source and are kept apart here.

Experiments:
[1] = target: T1, IMPDH type II (Homo sapiens, UniProt P12268); settings: uncompetitive inhibitor; read-out: Ki against type II; cited from earlier work
[2] = system: B cell and T cell proliferation; settings: cited from earlier work
[3] = target: IMPDH type I (Homo sapiens, UniProt P20839); settings: uncompetitive inhibitor; read-out: Ki against type I; cited from earlier work
Sequence of IMPDH type I (P20839 whole entry): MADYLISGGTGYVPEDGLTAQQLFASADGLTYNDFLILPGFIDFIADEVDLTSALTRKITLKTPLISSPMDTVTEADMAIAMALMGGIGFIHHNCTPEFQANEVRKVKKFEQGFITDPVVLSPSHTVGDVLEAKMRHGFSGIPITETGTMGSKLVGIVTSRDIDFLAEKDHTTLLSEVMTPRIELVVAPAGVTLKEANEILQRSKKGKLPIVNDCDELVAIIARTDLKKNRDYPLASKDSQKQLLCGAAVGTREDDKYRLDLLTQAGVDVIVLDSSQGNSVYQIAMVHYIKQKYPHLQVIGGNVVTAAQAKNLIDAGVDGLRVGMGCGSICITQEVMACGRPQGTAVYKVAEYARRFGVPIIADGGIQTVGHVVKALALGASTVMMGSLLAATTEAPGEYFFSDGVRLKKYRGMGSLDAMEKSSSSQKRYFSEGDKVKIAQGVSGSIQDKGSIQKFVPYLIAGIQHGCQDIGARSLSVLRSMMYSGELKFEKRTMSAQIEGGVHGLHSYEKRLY

[4] = target: type I IMPDH (Homo sapiens, UniProt P20839); settings: cited from earlier work; for Ki: product inhibition
Sequence of type I IMPDH (P20839 whole entry): as above

[5] = target: type II IMPDH (Homo sapiens, UniProt P12268); settings: cited from earlier work; for Ki: product inhibition
[6] = target: T2, DHODH (Homo sapiens, UniProt Q02127); settings: cited from earlier work; for Km: substrate/cosubstrate
Target sequence in this assay (Q02127 whole entry): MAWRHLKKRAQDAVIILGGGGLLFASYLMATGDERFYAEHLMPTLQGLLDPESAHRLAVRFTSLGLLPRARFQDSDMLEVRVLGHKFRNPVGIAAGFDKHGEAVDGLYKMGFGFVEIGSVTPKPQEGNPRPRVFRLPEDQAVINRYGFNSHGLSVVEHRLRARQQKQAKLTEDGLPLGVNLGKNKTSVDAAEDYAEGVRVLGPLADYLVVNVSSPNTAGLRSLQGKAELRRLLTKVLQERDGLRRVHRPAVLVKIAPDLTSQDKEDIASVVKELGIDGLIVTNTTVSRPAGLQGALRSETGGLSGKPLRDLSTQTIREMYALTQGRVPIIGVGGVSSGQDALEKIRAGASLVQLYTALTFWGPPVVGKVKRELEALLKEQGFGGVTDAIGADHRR

[7] = system: Jurkat T cells; assay: Viability (Trypan Blue) of untransfected or mock-transfected Jurkat T cells; type: cell-based, human
Procedure: (§1) Jurkat T cells (Human CD4+ T cell line from American Type Culture Collection, ATCC Number: TIB-152) were passaged in T cell culture media containing 0, 100, 125, 150, 175, and 200 μg/ml hygromycin. Unless otherwise stated, T cell culture media was prepared by addition of 13.7 ml HEPES (Irvine Scientific catalog No. 9319), 5 ml L-Glutamine (BioWhittaker Catalog No. 17-605C) and 57 ml heat inactivated fetal calf serum (Hyclone catalog No. SH30070.03) to 500 ml RPMI 1640 medium without Phenol Red pH indicator (Irvine Scientific catalog No. 9160).
(§2) The viability of Jurkat T cells and PBMCs was determined using the Trypan Blue method for counting and calculating the number of live cells. […] Viable cells (unstained cells) and dead cells (blue stained cells) were counted in two diagonally opposite large corner squares of the hemacytometer and the total number of viable cells in the suspension and percentage of viable cells in the population were calculated. The total number of viable cells in the suspension was calculated by multiplying the mean number of cells counted per square by the dilution factor multiplied by 10^4. The percentage of viable cells in the population was calculated by dividing the total number of viable cells per ml by the total number of cells per ml multiplied by 100. […]

[8] = system: Jurkat T cells transfected with plasmid IMPDH(T333I/S351Y)/pMG; assay: Proliferation (3H-Tdr incorporation) of Jurkat T cells transfected with IMPDH(T333I/S351Y)/pMG; type: cell-based, human
[9] = system: Jurkat T cells transfected with plasmid IMPDH(T333I/S351Y)/pMG; assay: Viability (Trypan Blue) of Jurkat T cells transfected with IMPDH(T333I/S351Y)/pMG; type: cell-based, human; settings: hygromycin-resistant transfectants
[10] = system: Jurkat T cells; assay: Proliferation (3H-Tdr incorporation) of untransfected or mock-transfected Jurkat T cells; type: cell-based, human
Procedure: as §1
To assess proliferation by ^3H-Tdr incorporation, a volume of cell suspension containing 5×10^6 cells was diluted to 10 ml and incubated at 37° C. and 5% CO2. On days 8, 10, 12, and 15, volumes of cell suspension yielding 0.6×10^6 cells were placed in 15 ml conical tubes and centrifuged at 1100 rpm for 8 minutes at room temperature. Supernatant was removed and cells were resuspended in […] T cell media. Aliquots of 0.1 ml each were dispensed into wells of a 96 well round bottom plate. Six wells were used for each clone. ^3H-Tdr (ICN catalog No. 24041) was diluted 1:20 with T cell media. Each well was pulsed by adding 50 μl/well (lpCi ^3H-Tdr/well) dilute ^3H-Tdr and incubating for 4 hours. Wells were harvested onto filter paper using a PhD Cell Harvester and CPM were counted in a liquid scintillation counter by standard scintillation procedures.
(§3) The amount of cell proliferation and viability were measured by the methods described in Example 1 at 72, 96, and 144 hours thereafter. OKT3/rhlL-2-activated PBMCs from healthy donors were passaged under the above conditions, and the amount of cell proliferation measured at the same time intervals.
Jurkat T cells (ATCC Number: TIB-152) were grown in T cell culture media in log phase and then subjected to electroporation by the method described in Example 1 in the presence of plasmid DNA vector IMPDH(T333I/S351Y)/pMG as described above. As a control (“mock”), Jurkat T cells were mock-transfected by electroporation with plasmid-free buffer.
As a control, mock-transfected Jurkat T cells were passaged under the same conditions.
As a control, mock-transfected Jurkat T cells were cultured under the same conditions.

[11] = target: T1, IMPDH type II; settings: cited from earlier work
[12] = target: Tritrichomonas foetus IMPDH (Tritrichomonas foetus, UniProt P50097); settings: Farazi et al. 1997; cited from earlier work
Sequence of Tritrichomonas foetus IMPDH (P50097 whole entry): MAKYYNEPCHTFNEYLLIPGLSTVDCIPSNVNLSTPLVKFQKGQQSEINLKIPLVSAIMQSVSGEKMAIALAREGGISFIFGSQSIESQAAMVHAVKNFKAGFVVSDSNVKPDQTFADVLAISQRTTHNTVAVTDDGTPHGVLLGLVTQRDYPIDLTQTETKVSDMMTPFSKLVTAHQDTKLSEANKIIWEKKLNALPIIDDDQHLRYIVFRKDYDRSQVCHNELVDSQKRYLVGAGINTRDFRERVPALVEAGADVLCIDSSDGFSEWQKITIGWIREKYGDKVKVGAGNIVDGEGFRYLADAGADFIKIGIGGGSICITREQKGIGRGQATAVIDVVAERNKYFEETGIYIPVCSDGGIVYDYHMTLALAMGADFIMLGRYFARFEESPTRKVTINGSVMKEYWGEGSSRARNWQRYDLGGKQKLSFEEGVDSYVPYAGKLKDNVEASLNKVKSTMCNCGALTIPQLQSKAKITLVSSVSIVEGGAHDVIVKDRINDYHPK

[13] = system: OKT3/rhIL-2-activated PBMCs; assay: Viability (Trypan Blue) of OKT3/rhIL-2-activated PBMCs; type: cell-based, human; settings: MPA 1×10^−7M to 1×10^−4M, 72, 96, 144 hours
Procedure: (§4) Five hundred million freshly isolated, healthy donor peripheral blood mononuclear cells (PBMCs) were diluted to a volume of 500 ml with T cell culture media. PBMCs were activated with 15 λ anti-CD3 monoclonal antibody Orthoclone OKT3 (Ortho Biotech Inc.). Ten 50 ml aliquots of PBMC/OKT3 were placed in separate flasks. To each PBMC/OKT3 flask, 50 μL of stock 50 U/μl recombinant human IL-2 (Chiron catalog No. 53905-991-01) was added to stimulate proliferation. OKT3/rhIL-2-activated PBMCs were passaged under the same conditions as described for the Jurkat T cells. The amount of Jurkat T cell and PBMC proliferation was determined by measuring DNA incorporation of ^3H-Tdr 8, 10, 12, and 15 days thereafter.
as §2, with “10^4.” for “10^4. The percentage of viable cells in the population was calculated by dividing the total number of viable cells per ml by the total number of cells per ml multiplied by 100.”

[14] = target: Bacillus subtilis IMPDH (Bacillus subtilis, UniProt P21879); settings: Farazi et al. 1997; cited from earlier work
Sequence of Bacillus subtilis IMPDH (P21879 whole entry): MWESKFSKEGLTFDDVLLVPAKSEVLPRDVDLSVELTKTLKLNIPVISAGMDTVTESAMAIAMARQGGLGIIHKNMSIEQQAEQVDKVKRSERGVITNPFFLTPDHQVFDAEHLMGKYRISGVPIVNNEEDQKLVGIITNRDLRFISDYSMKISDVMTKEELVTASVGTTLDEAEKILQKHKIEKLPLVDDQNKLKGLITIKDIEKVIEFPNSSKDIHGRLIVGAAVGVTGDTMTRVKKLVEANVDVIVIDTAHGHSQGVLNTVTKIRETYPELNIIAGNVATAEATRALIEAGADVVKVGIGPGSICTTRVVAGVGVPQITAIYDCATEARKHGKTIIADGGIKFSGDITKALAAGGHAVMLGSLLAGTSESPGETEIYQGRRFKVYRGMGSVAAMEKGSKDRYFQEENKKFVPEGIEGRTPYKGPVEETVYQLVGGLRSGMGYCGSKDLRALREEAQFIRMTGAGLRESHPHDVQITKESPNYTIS

[15] = system: OKT3/rhIL-2-activated PBMCs; assay: Proliferation (3H-Tdr incorporation) of OKT3/rhIL-2-activated PBMCs; type: cell-based, human; settings: MPA 1×10^−7M to 1×10^−4M, 72, 96, 144 hours
Procedure: as §4
To assess proliferation by ^3H-Tdr incorporation, a volume of cell suspension containing 5×10^6 cells was diluted to 10 ml and incubated at 37° C. and 5% CO2. […] Wells were harvested onto filter paper using a PhD Cell Harvester and CPM were counted in a liquid scintillation counter by standard scintillation procedures.
as §3

[16] = target: Escherichia coli IMPDH (Escherichia coli, UniProt P0ADG7); settings: Farazi et al. 1997; cited from earlier work
Sequence of Escherichia coli IMPDH (P0ADG7 whole entry): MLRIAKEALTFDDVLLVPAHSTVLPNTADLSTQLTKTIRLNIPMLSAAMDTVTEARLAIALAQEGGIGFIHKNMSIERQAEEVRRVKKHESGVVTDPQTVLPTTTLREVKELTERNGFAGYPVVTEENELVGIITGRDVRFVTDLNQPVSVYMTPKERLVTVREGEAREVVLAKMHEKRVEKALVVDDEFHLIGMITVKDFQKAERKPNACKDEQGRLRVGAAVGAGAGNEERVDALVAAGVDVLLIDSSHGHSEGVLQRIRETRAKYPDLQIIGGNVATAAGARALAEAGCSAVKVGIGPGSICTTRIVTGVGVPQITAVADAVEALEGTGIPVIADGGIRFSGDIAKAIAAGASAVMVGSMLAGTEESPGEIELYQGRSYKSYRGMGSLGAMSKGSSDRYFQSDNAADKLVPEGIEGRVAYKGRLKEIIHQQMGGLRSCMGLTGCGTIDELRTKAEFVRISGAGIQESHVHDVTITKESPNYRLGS

[17] = target: T2, DHODH; settings: cited from earlier work
Target sequence in this assay (Q02127 whole entry, species assumed): as the sequence (Q02127 whole entry) above

[18] = target: IMPDH; settings: competition for NAD+ cofactor-binding site; Yamada et al. 1989; read-out: Ki against NAD; cited from earlier work
[19] = daily dosage of 2-3 g MMF, adult transplant recipients; cited from earlier work
[20] = Jurkat, MPA 1×10^−7M to 1×10^−4M, 72, 96, 144 hours
[21] = human DHODH, read-out: Ki, uncompetitive with respect to dihydroorotate

For COc1cc(NC(=O)Nc2cccc(CNC(=O)O[C@H]3CCOC3)c2)ccc1-c1cnco1 [VX-497], the Ki [1] is listed as 0.01 µM, the IC50 [2] is listed as about 0.1 µM and the Ki [3] is listed as 0.007 µM.
For NC(=O)c1ccc[n+]([C@@H]2O[C@H](COP(=O)([O-])OP(=O)(O)OC[C@H]3O[C@@H](n4cnc5c(N)ncnc54)[C@H](O)[C@@H]3O)[C@@H](O)[C@H]2O)c1 [NAD], the Km ([4]; substrate/cofactor) is given as about 46 µM and the Km ([5]; substrate/cofactor) is given as about 32 µM.
In the case of COC1=C(OC)C(=O)C(C/C=C(\C)CC/C=C(\C)CC/C=C(\C)CC/C=C(\C)CC/C=C(\C)CC/C=C(\C)CC/C=C(\C)CC/C=C(\C)CC/C=C(\C)CCC=C(C)C)=C(C)C1=O [ubiquinone], the Km ([6]; human DHODH) is given as about 110 µM.
For COc1c(C)c2c(c(O)c1C/C=C(\C)CCC(=O)O)C(=O)OC2 [MPA, Mycophenolic acid], the “viability vs. absence of MPA” value [7, 20] was “significantly reduced”, the “viable cells in medium containing mycophenolic acid” value ([7]; mock-transfected Jurkat, by 36 days) was “no viable cells were detected” and the “maximum 3H-Tdr incorporation maintained” value ([8]; five of the ten MPA-resistant clones, MPA 1×10^−6M or less) was “greater than 50%”. The “proliferation, % of the maximum proliferation in the absence of MPA” value ([8]; hygromycin-resistant transfectants, 2×10^−6M to 2×10^−7M MPA) was 20-92%, the “transfectant cells demonstrating proliferation” value ([8]; limiting dilution in 3×10^−6 M mycophenolic acid, 21 days after transfection, 10^4 cells per well) was “Approximately 10%” and the “viability at day 21 post-transfer compared to day 0” value ([9]; higher concentrations of mycophenolic acid) was “somewhat less viable”. For the same compound, the “viability at day 21 post-transfer” value ([9]; lower concentrations of mycophenolic acid) was “more viable at day 21 post-transfer than those cultured in medium containing higher concentrations of mycophenolic acid”, the “proliferation vs. absence of MPA” value [10, 20] was “significantly reduced” and the “proliferation in presence of mycophenolic acid” value ([10]; control Jurkat, MPA 1×10^−6M to 2×10^−5M) was “essentially completely inhibited”. The “proliferation in medium containing mycophenolic acid” value ([10]; mock-transfected Jurkat, MPA 2×10^−7M to 2×10^−5M) was “did not proliferate”, the “3H-Tdr incorporation, % of media control” value ([10]; mock-transfected Jurkat, mycophenolic acid 2×10^−7 M and greater) was “less than 3%” and the “higher binding affinity for human IMPDH type II over human IMPDH type I” value [11] was “approximately 5 fold”. The Ki [12] was 14 µM, the “viability vs. absence of MPA” value [13] was “significantly reduced by MPA at all concentrations, except the lowest concentration” and the Ki [14] was 0.5 µM. For the same compound, the “proliferation vs. absence of MPA” value [15] was “significantly reduced by MPA at all concentrations, except the lowest concentration” and the Ki [16] was 20 µM.
In the case of O=C(O)c1cc(=O)[nH]c(=O)[nH]1 [Orotate], the Ki ([6]; competitive with respect to dihydroorotate, read-out: Kis (slope inhibition constant)) is given as 22 ± 3 µM and the Ki ([6]; uncompetitive with respect to quinone, read-out: Kij (intercept inhibition constant)) is given as 60 ± 10 µM.
In the case of NC(=O)C1=CN([C@@H]2O[C@H](COP(=O)(O)OP(=O)(O)OC[C@H]3O[C@@H](n4cnc5c(N)ncnc54)[C@H](O)[C@@H]3O)[C@@H](O)[C@H]2O)C=CC1 [NADH], the Ki [4] is listed as about 102 µM and the Ki [5] is listed as about 90 µM.
In the case of xanthine monophosphate [XMP], the Ki [4] is listed as about 80 µM and the Ki [5] is listed as about 94 µM.
In the case of CC(=O)N1CCc2c([nH]c3ccc(Br)cc23)C1c1ccccc1 (stereo not shown) [NSC 665564], the “IC50 compared with Brequinar” value [17] is listed as “comparable IC50 to Brequinar” and the “Ki compared with Brequinar” value [17] is listed as “lower Ki”.
In the case of O=C1C(O)=C([C@H]2CC[C@H](c3ccc(Cl)cc3)CC2)C(=O)c2ccccc21 [Atovaquone], the Ki [6, 21] is given as 11.5 µM.
In the case of NC(=O)c1csc(C2O[C@@H](COP(=O)(O)OP(=O)(O)OC[C@H]3OC(n4cnc5c(N)ncnc54)[C@H](O)[C@@H]3O)[C@H](O)[C@@H]2O)n1 (stereo partly shown) [TAD, thiazole-4-carboxamide adenine dinucleotide], the Ki [18] is given as 0.075 µM.
For O=C1C(O)=C(CC=C(Cl)Cl)C(=O)c2ccccc21 [DCL, dichloroallyl lawsone], the Ki ([6]; human DHODH, read-out: Ki, competitive with respect to ubiquinone) is given as 0.0098 µM and the Ki [6, 21] is given as 0.038 µM.
For Cc1nc2c(n1-c1ccc(Br)cc1)C(=O)c1ccccc1C2=O [BNID, 1-(p-bromophenyl)-2-methyl 1H-napth(2,3-d)-imidazole-4,9-dione], the Ki [17] is given as 0.53 µM.
In the case of COc1c(C)c2c(c(O)c1C/C=C(\C)CCC(=O)OCCN1CCOCC1)C(=O)OC2 [MMF, Mycophenolate mofetil], the “therapeutically relevant blood trough levels” value [19] is given as 1 to 5 µg/mL.
In the case of O=C1CC(C(=O)O)NC(=O)N1 (stereo not shown) [dihydroorotate], the Km ([6]; human DHODH) is listed as about 9.4 µM.
For COc1cc(-c2ccc(Nc3ccccc3C(=O)O)c(OC)c2)ccc1Nc1ccccc1C(=O)O [Redoxal], the Ki ([6]; non-competitive for dihydroorotate and ubiquinone, read-out: apparent Ki) is listed as 0.33 µM.
For CCCCCCCCCCC1=C(C)C(=O)C(OC)=C(OC)C1=O [decylubiqunone], the Km ([6]; human DHODH) is listed as about 13.7 µM.
